Test results from patent US20170240522A1, “BENZOTHIOPHENE, BENZYLOXYBENZYLIDENE AND INDOLINE DERIVATIVES USEFUL FOR THE TREATMENT OF TUBERCULOSIS” (priority 2014, published 2017).

Legend:
[1] = system: MRC-5 lung fibroblasts; test: Fibroblast survival assay (FSA); assay type: cell-based; details: Homo sapiens, MRC5; read-out: IC50 of protection of fibroblasts
[2] = system: Mtb-Erdman; test: Growth of Mtb in 7H9 broth; assay type: cell-based, Mycobacterium tuberculosis; details: 25 μM
[3] = system: several other mycobacteria and non-mycobacterial pathogens; test: REMA assay of non-Mtb strains; assay type: cell-based
[4] = system: Mtb expressing GFP in infected fibroblasts; assay type: cell-based, Mycobacterium tuberculosis; details: compound concentration 5 μM (FIG. 2D)
[5] = system: EsxA; assay type: cell-based, Mycobacterium tuberculosis
[6] = system: Ag85 complex proteins; assay type: cell-based, Mycobacterium tuberculosis; details: 5 μM
[7] = system: Mtb culture filtrate proteins; test: Secretome analysis of culture filtrate (LC/MS-MS); assay type: cell-based, Mycobacterium tuberculosis; details: 5 μM
Procedure: For the secretome analysis 10 μg of protein was reconstituted in 200 μl of 4 M Urea, 10% acetonitrile and buffered with Tris-HCl pH 8.5 to a final concentration of 30 mM. Proteins were reduced in 10 mM dithioerythritol (DTE) at 37° C. for 60 min. and then alkylated in 40 mM iodoacetamide at 37° C. for 45 min. Reactions were quenched by addition of DTE to a final concentration of 10 mM. First, protein digestion was performed using Lys-C (1:50 enzyme:protein) for 2 hours at 37° C. The lysates were then diluted 5-fold and a second digestion was performed overnight at 37° C. using mass spectrometry grade trypsin gold (1:50 enzyme:protein) and 10 mM CaCl2. Reactions were stopped by addition of 8 μl of pure formic acid and peptides were concentrated by vacuum centrifugation to a final volume of 70 μl.
• After digestions, samples were dimethyl-labeled as described previously (Boersema et al., 2009). […]
• Each SAX fraction was resuspended in 2% acetonitrile, 0.1% FA and loaded on a capillary pre-column (Magic AQ C18; 3 μm by 200 Å; 2 cm×100 μm ID). […] Relative quantification within different conditions was obtained calculating the significance B values for each of the identified proteins using Perseus (Cox et al., 2009).

[8] = system: mycobacterial outer membrane permeability; test: Ethidium bromide (EtBr) uptake assay; assay type: cell-based, Mycobacterium tuberculosis; details: 10 μM
Procedure: (§1) Bacteria were grown for 24 hours in the presence of test compounds. The BacTiter-Glo microbial cell viability reagent (Promega) was used for the quantification of ATP according to the recommendations of the manufacturer. For EtBr uptake assays, bacteria were washed with PBS containing 0.05% Tween 80, OD600 was adjusted to 0.4 and 100 μl were pipetted into black 96 well plates. EtBr was added (4 μM final concentration) and fluorescence was read every 2 min. at 545/600 nm. Unpaired Student's T-tests were used for statistical analyses.
To investigate whether BBH7 alters mycobacterial outer membrane permeability, which might explain the transcriptomic pattern associated with metal-ion toxicity, the Applicant performed ethidium bromide (EtBr) uptake assays after treatment with the compounds of interest. These assays identify altered outer membrane permeability by an increase of fluorescence after binding of EtBr to bacterial nucleic acids. […] This was not observed with BTP15.

[9] = system: ATP-levels of Mtb; test: Quantification of intracellular ATP levels; assay type: cell-based, Mycobacterium tuberculosis; details: 10 μM, 24 hours
Procedure: as §1

[10] = system: Mtb-infected THP-1 macrophages; assay type: cell-based, human
[11] = system: THP-1 macrophages; test: Survival of Mtb-infected activated THP-1 macrophages; assay type: cell-based, human; details: activated THP-1, higher MOI, 10 μM
[12] = system: Mtb-GFP inside activated THP-1 cells; assay type: cell-based, Mycobacterium tuberculosis; details: activated THP-1, 10 μM
[13] = system: ESX-1; test: ESX-1 inhibitory activity of inhibitors of mycobacterium virulence (Table VII); assay type: cell-based, Mycobacterium tuberculosis
[14] = system: GroEL; details: BBH7 and BTP15 treatment
Procedure: In brief, 30 ml of bacteria grown to mid-logarithmic phase (OD600 of 0.6 to 0.7) in Sauton's medium supplemented with 0.05% Tween 80 were centrifuged and resuspended in Sauton's medium without Tween. Compounds were added at concentrations as indicated and cells were grown further at 37° C. with shaking for 4 days. Cultures were harvested by centrifugation to obtain culture filtrates and cell pellets. Culture filtrates were concentrated 100-fold in 5-kDa cutoff Vivaspin columns (Sartorius). Cell lysates were prepared by bead beating bacterial pellets in lysis buffer with 100-μm glass beads.
For immunoblot analysis, 5 μg of protein were resolved by SDS-gel electrophoresis and transferred to nitrocellulose membranes. Membranes were blocked with TBS-buffer (3% milk powder) and incubated overnight with the desired primary antibody diluted in TNT-buffer supplemented with 1% BSA fraction V. Membranes were washed with TNT, incubated with the appropriate secondary antibody in TNT-BSA, washed again with TNT, and developed. GroEL2 was used as a lysis control for culture filtrates and as a loading control for cell lysates.

CSC(=S)N/N=C(\C)c1ccc(OCc2ccc(F)cc2F)cc1 [BBH7, N′-{1-[4-(2,4-Difluoro-benzyloxy)-phenyl]ethylidene}-hydrazinecarbodithioic acid methyl ester]
IC50 [1]: 2400 nM | growth inhibition of Mtb [2]: no growth inhibition | MIC99 [3]: > 100 µM | GFP fluorescence of Mtb in infected fibroblasts [4]: no fluorescence was detected | EsxA secretion [5]: dose-dependent secretion inhibition | Ag85 secretion [6]: fully blocked | reduction of total culture filtrate protein [7]: 50% | abundance of ESX-5 substrates (EsxN/EsxM, PE25, PPE41) in culture filtrate ([7]; LC-MS/MS): significantly reduced in abundance | EtBr accumulation and fluorescence [8]: increases EtBr accumulation and fluorescence | mycobacterial ATP levels [9]: not found to be reduced | rate of bacteria in acidic compartments (Lysotracker Red co-localization) [10]: significantly higher rate | protection of THP-1 cells from Mtb-induced cell death [11]: protected THP-1 cells from Mtb-induced cell death | intracellular bacterial load [12]: greatly reduced the intracellular bacterial load | Activity [13]: 97% | GroEL in the culture filtrate (cell lysis) [14]: not observed
